This is an account of results in ChEMBL document CHEMBL1157597, “Exploring a synthetic organoselenium compound for antioxidant pharmacotherapy--toxicity and effects on ROS-production” (Bioorg Med Chem, 2010).

The source made the active and inactive calls. No cut-off for these calls is given here.

Series [1] can be described thus: Cytotoxicity against human MG63 cells assessed as plasma membrane damage at 60 uM after 7 days by LDH assay. In kind it is cell-based. Conditions: mg-63, 168 h.
In series [2] the test system is Caco-2. In words: Cytotoxicity against human Caco-2 cells assessed as cell death at 60 uM after 7 days by LDH assay. In kind it is cell-based. As to conditions: caco-2, 168 h.
The test system of series [3] is Caco-2. Description: Cytotoxicity against human Caco-2 cells assessed as plasma membrane damage at 60 uM after 7 days by LDH assay. It counts as cell-based. Conditions: caco-2, 168 h.
Series [4] deals with SH-SY5Y. Description: Cytotoxicity against human SH-SY5Y cells assessed as cell death at 60 uM after 7 days by LDH assay. It counts as cell-based. Conditions: 168 h.
The test system of series [5] is HEK293. In words: Cytotoxicity against HEK293 cells assessed as cell death at 60 uM after 7 days by LDH assay. It counts as cell-based. Conditions: human, hek293, 168 h.
Series [6] deals with MRC5. In words: Cytotoxicity against human MRC5 cells assessed as plasma membrane damage at 60 uM after 7 days by LDH assay. As to conditions: mrc5, 168 h. In kind it is cell-based.
The nature of series [7]: Cytotoxicity against human MG63 cells assessed as cell death at 60 uM after 7 days by LDH assay. It counts as cell-based. Conditions: mg-63, 168 h.
In series [8] the test system is SH-SY5Y. In words: Cytotoxicity against human SH-SY5Y cells assessed as plasma membrane damage at 60 uM after 7 days by LDH assay. As to conditions: 168 h. In kind it is cell-based.
Series [9] has as its system HEK293. In words: Cytotoxicity against HEK293 cells assessed as plasma membrane damage at 60 uM after 7 days by LDH assay. As to conditions: human, hek293, 168 h. It counts as cell-based.
For series [10], the system named is MRC5. In words: Cytotoxicity against human MRC5 cells assessed as cell death at 60 uM after 7 days by LDH assay. As to conditions: mrc5, 168 h. In kind it is cell-based.
The nature of series [11]: Antioxidant activity against ABTS radicals assessed as trolox equivalents in phosphate buffer of pH 7.4 at 6.08 uM by ABTS assay. It counts as functional.
A further series has as its system Neutrophil. In words: (§1) Antioxidant activity against ROS-production in human neutrophils by chemiluminescence. It counts as functional, cell-based.
Series [12] can be described thus: as §1. As to conditions: Neutrophil. In kind it is functional, cell-based.
The test system of series [13] is SH-SY5Y. Description: Cytotoxicity against human SH-SY5Y cells assessed as decrease in proliferation up to 200 uM after 7 days by alamar blue assay. It counts as cell-based. As to conditions: 168 h. (In general: Alamar Blue is a resazurin reagent that responds to reducing activity.)
The test system of series [14] is HEK293. Description: Cytotoxicity against HEK293 cells assessed as decrease in proliferation up to 200 uM after 7 days by alamar blue assay. Conditions: human, hek293, 168 h. It counts as cell-based.
Series [15] can be described thus: Cytotoxicity against human MG63 cells assessed as decrease in proliferation up to 200 uM after 7 days by alamar blue assay. Conditions: mg-63, 168 h. It counts as cell-based.
For series [16], the system named is Caco-2. In words: Cytotoxicity against human Caco-2 cells assessed as decrease in proliferation up to 200 uM after 7 days by alamar blue assay. As to conditions: caco-2, 168 h. In kind it is cell-based.
In series [17] the test system is MRC5. In words: Cytotoxicity against human MRC5 cells assessed as decrease in proliferation up to 200 uM after 7 days by alamar blue assay. In kind it is cell-based. As to conditions: mrc5, 168 h.
The subject of another series is THP-1. Description: Antioxidant activity against ROS-production in PMA-stimulated human THP1 cells by chemiluminescence. It counts as cell-based.

In the case of `Cc1c(C)c2c(c(C)c1O)CCC(C)(C(=O)O)O2` (stereo unspecified) [TROLOX], the Activity result (in series [1]; in the series on Caco-2 [2]; in the series on Caco-2 [3]; with SH-SY5Y [4]; with HEK293 [5]; with MRC5 [6]) was “Non-toxic” throughout. In addition, the Activity result (in series [7]; with SH-SY5Y [8]; in the series with HEK293 [9]; in the series on MRC5 [10]) was “Non-toxic” in each case.
As for `CC(=O)N[C@@H](CS)C(=O)O`, the Activity in series [11] was determined as 2.4.
For orientation: IC50 means the concentration that inhibits the measured activity by half. A higher IC50 goes with weaker potency. Turning to `CC1Cc2cc(O)ccc2[Se]1` (stereo unspecified), the Activity entry with Neutrophil was “Dose-dependent effect”; in [1], “Non-toxic”; in the series with Caco-2 [2], “Non-toxic”; in the series with Caco-2 [3] it was “Non-toxic”; in the series with SH-SY5Y [13], “Non-toxic”; in the series with SH-SY5Y [4] it was “Non-toxic”. Besides, the Activity result (with HEK293 [14]; in [15]; in the series with HEK293 [5]; in the series on MRC5 [6]; in the series on Caco-2 [16]; in [7]) was “Non-toxic” each time. Further, the Activity result in the series on SH-SY5Y [8] is given as “Non-toxic”; with HEK293 [9], “Non-toxic”; in the series with MRC5 [17], “Non-toxic”; in the series on MRC5 [10] it was “Non-toxic”; in the series with THP-1, “Dose-dependent effect”. Further, the IC50 in [12] came out at 1000 nM. Also, the outcome in [11] was Active.
Regarding `O=C1O[C@H]([C@@H](O)CO)C([O-])=C1O.[Na+]`, the result in series [11] was Active.
